Several values for one entry are separate records, joined by “and”; a condition that tells them apart may be missing. Equal entries are not always repeated.
Experiments:
[1] = test system: eIF4E-dTAG (FKBP12^F36V-tagged eIF4E); assay: Immunoblot of eIF4E-dTAG degradation in H1299 eIF4E-dTAG clones; type: cell-based, human; details: 6 h at ≈ 2–5x the IC50
Procedure: Treatment of isolated clones with the heterobifunctional dTAG^V−1 molecule recruits E3 ligase VHL to degrade eIF4E-dTAG. […] Parental H1299 cells and the selected eIF4E-dTAG clones were treated with 0.5 and 1 µM dTAG^V−1 for 6, 8, or 16 h. Vinculin was used as a loading control (n = 3 biological replicates). c Real-time cell growth measurements of the selected eIF4E-dTAG clones treated with 0.5 or 1 µM dTAG^V−1. Cell confluency (%) was monitored every 4 h over 6 days using Incucyte Zoom. Significance was determined using a one-way ANOVA with Tukey multiple comparisons test comparing dTAG^V−1 treatment with the control in each cell line. […] Significant differences between control and treated samples were determined using MSstats. […]
After seeding overnight in 6 well plates (Corning, cat#353046), cells were treated with compounds for the indicated times and concentration, harvested and the cell pellet lysed on ice in cell lysis buffer (Cell Signaling, cat#9803), supplemented with 1x Halt^TM protease inhibitor cocktail (Fisher Scientific, cat#78429) and cOmplete^TM protease inhibitor cocktail (Sigma-Aldrich, cat#11836153001) for 1 hr. Protein was quantified using BCA protein kit (Fisher Scientific, cat#23225). […] Quantitative densitometry analysis of protein bands was performed using Image J v1.53 software.

eIF4E–4E-BP1 interaction = eIF4E–4E-BP1 interaction (Homo sapiens, UniProt P06730); assay: Electro-chemiluminescent binding assay, eIF4E:4E-BP1, SW620 cell lysates; type: biochemical; design: endogenous in cells; host or cells: SW620 cell lysates; details: for 4E-BP1:eIF4E luminescence signal normalised to DMSO control: SW620, Expt 1, Expt 2, Fig. 4d
Chain of eIF4E–4E-BP1 interaction (P06730 2-217 limits assumed): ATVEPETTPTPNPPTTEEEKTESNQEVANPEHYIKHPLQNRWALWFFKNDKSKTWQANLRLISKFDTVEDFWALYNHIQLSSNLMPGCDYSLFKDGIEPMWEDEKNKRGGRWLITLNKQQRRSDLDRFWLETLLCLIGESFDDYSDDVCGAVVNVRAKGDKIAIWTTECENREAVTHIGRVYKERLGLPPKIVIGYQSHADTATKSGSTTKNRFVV
Procedure: This assay uses plates with carbon electrodes and electro-chemiluminescent labels (SULFO-TAGs) that are conjugated to detection antibodies. When an electric current is applied to the plate electrodes the SULFO-TAG labels will emit light that is measured to quantify analytes in the sample. […] The plates were washed with 3 ×150 µl/well MSD wash buffer (cat#R61AA-1; 0.2% Tween-20 in PBS), then blocked with 150 µl/well block buffer (MSD, cat# R93AA) for 1 h. […] The incubated plates were washed 4x in 150 µl in MSD wash buffer and were re-blocked by the addition of 25 μl of blocking buffer containing a 1:500 dilution of the secondary antibody and incubated for 1 hr at RT with rotational shaking. […] Plates were then washed again 4x in 150 µl in MSD wash buffer and 25 μl of a 1:50 dilution of Goat anti-rabbit Sulfo-Tag (MSD, Cat# R32AB-1) in MSD blocking buffer was added and the plates incubated for 1 h at RT with rotational shaking. After a final wash step, 150 μl Read Buffer T4X (MSD, Cat# R92-TC2) was added and the plate read using the MSD QuickPlex SQ 120 plate reader.

eIF4E = molecular target: T1, eIF4E (Homo sapiens, UniProt P06730); assay: CETSA in intact H1299 cells; type: cell-based; details: 6 hrs; for eIF4E stabilisation, eIF4E normalised to vinculin relative to average control (plotted on graph), Average: H1299, 57 °C, control = 1.000
T1 construct: endogenous in cells; host or cells: H1299
T1 sequence (P06730 whole entry): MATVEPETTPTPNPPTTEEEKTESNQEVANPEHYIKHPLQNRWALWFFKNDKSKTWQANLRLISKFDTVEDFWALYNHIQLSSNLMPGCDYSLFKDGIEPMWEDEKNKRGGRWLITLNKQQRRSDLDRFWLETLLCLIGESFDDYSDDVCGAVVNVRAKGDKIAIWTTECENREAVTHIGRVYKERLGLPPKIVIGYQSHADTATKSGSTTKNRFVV
Procedure: Cells (1.5 × 10^6 cells) were plated into 75 cm^2 flasks and allowed to attached overnight. After treatment with compound 4 or 5 for 6 h, they were harvested by trypsinisation and washed x2 in ice cold PBS. Cells were resuspended in 1 ml of cold PBS supplemented with protease and phosphatase inhibitors (Fisher Scientific, cat#1861281). Resuspended cells were divided into 100 μl aliquots and centrifuged at 300 x g for 3 min at 4 °C. Following centrifugation, 75μl of supernatant was removed and cells resuspended in the remaining volume. Cell suspensions were heated at 40.9, 43.7, 48.1, 52.9, 57.6, 62.4, 67.2, 71.9, 76.3 and 79.1 °C for 3 mins followed by cooling at 20 °C for 3 min[25]. Suspensions were freeze-thawed twice using liquid nitrogen. Soluble fractions were separated from cell debris by centrifuging at 20,000 x g for 30 min at 4 °C. Samples were then analysed by Western Blot.

c-Myc-activity = assay: c-Myc-regulated luciferase reporter in SW620 cells; type: cell-based, human; details: for c-Myc, Average / CMV, Average: SW620; for c-Myc, Average: c-Myc-regulated firefly luciferase reporter; for CMV, Average: constitutive CMV promoter-regulated renilla luciferase reporter
Procedure: Luminescence was measured using the Dual-glo luciferase assay (mean ± SEM from 3 biological replicates). b SW620 cells were transfected with a c-Myc-regulated firefly luciferase expression reporter or a constitutive CMV promoter-regulated renilla luciferase reporter. Cells were treated for 24 hr with 1 or 10 µM compound 4 or the […] kinase inhibitor AZD8055 as positive control (mean ± SEM from 3 biological replicates). An ordinary one-way ANOVA with Tukey multiple comparisons test was performed comparing c-Myc-regulated firefly luciferase expression or CMV-regulated Renilla luciferase expression following the different treatments. For c-Myc-regulated firefly luciferase expression, all significant p values […]
were <0.0001. […]
Source data is located in the Supplementary Source Data file

Row | SMILES | loss of eIF4E-dTAG [1] | 4E-BP1:eIF4E luminescence signal normalised to DMSO control (eIF4E–4E-BP1 interaction; 0.4 μM) | 4E-BP1:eIF4E luminescence signal normalised to DMSO control (eIF4E–4E-BP1 interaction; 4 μM) | 4E-BP1:eIF4E luminescence signal normalised to DMSO control (eIF4E–4E-BP1 interaction; 12 μM) | 4E-BP1:eIF4E luminescence signal normalised to DMSO control (eIF4E–4E-BP1 interaction; 40 μM) | effect on 4E-BP1 binding to eIF4E (eIF4E–4E-BP1 interaction; SW620 cell lysates) | 4E-BP1:eIF4E SW620, luminescence ratio normalised to DMSO control (eIF4E–4E-BP1 interaction; SW620 lysates, 100 µM, 30 min, single experiments Expt 1, Expt 2) | eIF4E stabilisation, eIF4E normalised to vinculin relative to average control (plotted on graph), Average (eIF4E; 0.5 μM) | eIF4E stabilisation, eIF4E normalised to vinculin relative to average control (plotted on graph), Average (eIF4E; 1 μM) | eIF4E stabilisation, eIF4E normalised to vinculin relative to average control (plotted on graph), Average (eIF4E; 5 μM) | eIF4E stabilisation, eIF4E normalised to vinculin relative to average control (plotted on graph), Average (eIF4E; 10 μM) | protection of eIF4E from thermal denaturation (eIF4E; H1299 cells, 50 µM) | EC50 (eIF4E; read-out: EC50, thermal protection of eIF4E (target engagement), intact H1299 cells, 57.6 °C) | c-Myc, Average (c-Myc-activity; 1μM) | CMV, Average (c-Myc-activity; 1μM) | c-Myc, Average (c-Myc-activity; 10μM) | CMV, Average (c-Myc-activity; 10μM) | activity in c-Myc reporter assay (c-Myc-activity; SW620 cells, 1 or 10 µM, 24 hr)
1 | CC[C@H](C(=O)N1CCCC[C@H]1C(=O)O[C@H](CCc1ccc(OC)c(OC)c1)c1ccccc1OCC(=O)NCCCCCCC(=O)N[C@H](C(=O)N1C[C@H](O)C[C@H]1C(=O)N[C@@H](C)c1ccc(-c2scnc2C)cc1)C(C)(C)C)c1cc(OC)c(OC)c(OC)c1 [dTAG^V-1] | near complete loss of eIF4E-dTAG | – | – | – | – | – | – | – | – | – | – | – | – | – | – | – | – | –
2 | CC[C@H](O[C@H](C)CO)c1ccc(-c2ccccc2F)cc1NCCO [Compound 4] | – | 98.1% and 93.2% | 74.9% and 84.1% | 74.8% and 76% | 76.2% and 83.6% | not 4E-BP1 binding to eIF4E | 103% and 91% | 1.140 | 1.298 | 1.771 | 2.067 | protected eIF4E from thermal denaturation | 2000 nM | 80.09 | 89.27 | 67.68 | 82.92 | showed no activity
